According to patent US20240398788A1, “METHODS OF TREATING CANCER USING HSF1 PATHWAY INHIBITORS” (Institute of Cancer Research, priority 2021, published 2024):

What was measured:
[1] = system: IGROV1 ovarian cancer xenograft (ARID1A mutation); test: IGROV1 ovarian cancer xenograft efficacy study; type: in vivo, NCr nude mice; conditions: 35 mg/kg oral once daily, intermittent, 11/15 doses/study days
Description: (§1) The in vivo efficacy of Compound A was investigated in xenograft tumours in athymic nude mice with a focus on ovarian cancers. […] Of the seven cell lines, SK-OV-3; TOV-21G, OVISE, and IGROV1 were identified as harboring an ARID1A mutation, while OVCAR-5, ES-2, and RMG1 were ARID1A wildtype.
(§2) Once the tumours were established, mice were randomised into vehicle control and treatment groups. Mice in both the vehicle control and treatment groups that were removed during the course of the study due to spontaneous or treatment derived tumour regression, tumour growth approaching license limits, tumour ulceration or loss of condition were excluded from the final analysis of the mean tumour volume and standard error of the mean and up to the point they were removed from the study. The number of mice undergoing complete tumour regression in the treatment group is noted where applicable.
(§3) Two groups of 12 female NCr nude mice (3 groups of 10 for SK-OV-3) were injected with 3-5×10^6 cells of one of the above cancer cell lines, subcutaneously. […] Body weights were taken daily and animals were monitored for signs of toxicity. To evaluate drug levels the animals were euthanised in batches of 3 to 4 at 2, 6 and 24 hours after the last dose and terminal plasma and tumour samples collected for PK analysis.

[2] = system: TOV-21G ovarian cancer xenograft (ARID1A mutation); test: TOV-21G ovarian cancer xenograft efficacy study; type: in vivo, NCr nude mice; conditions: TOV-21G xenograft, 35 mg/kg oral once daily, 5/7 days, 21/19 doses/study days
Description: The tumor was identified as harboring an ARID1A mutation. […] Vehicle control group n=8 and 35 mg/kg dose group n=11.
as §1, §2
(§4) Two groups of 12 female NCr nude mice (3 groups of 10 for SK-OV-3) were injected with 3-5×10^6 cells of one of the above cancer cell lines, subcutaneously. […] Body weights were taken daily and animals were monitored for signs of toxicity. […]

[3] = system: SK-OV-3 ovarian cancer xenograft (ARID1A mutation); test: SK-OV-3 ovarian cancer xenograft efficacy study; type: in vivo, athymic nude mice
Description: The tumor was identified as harboring an ARID1A mutation. […] Control and 35 mg/kg group n=10. Horizontal black line is 35 mg/kg group tumour volume on Day 0.
as §1, §2, §4

[4] = system: OVISE ovarian cancer xenograft (ARID1A mutation); test: OVISE ovarian cancer xenograft efficacy study; type: in vivo, NCr nude mice; conditions: 35 mg/kg oral once daily, 5/7 days, 38/52 doses/study days
Description: as §1, §2, §3

[5] = system: RMG1 ovarian cancer xenograft (ARID1A wildtype)
Description: as §2, §3

[6] = system: ES-2 ovarian cancer xenograft (ARID1A wildtype)
Description: as §2, §3

[7] = system: OVCAR-5 ovarian cancer xenograft (ARID1A wildtype)
Description: as §2, §3

With `CCN1CCN(Cc2ccc3cc(C(=O)Nc4cc(NC(=O)c5ccc6c(c5)OCCO6)ccc4F)ccc3n2)CC1` [Compound A, N-(5-(2,3-Dihydrobenzo[b][1,4]dioxine-6-carboxamido)-2-fluorophenyl)-2-((4-ethylpiperazin-1-yl)methyl)quinoline-6-carboxamide] the “TGI (%)” value [1] was 56%, the “TGI (%)” value [2] was 81% and the “sensitivity in xenograft models (in words)” value ([3]; SK-OV-3, ARID1A mutated, compared with the other six xenografts) was “most sensitive cell line in xenograft models”. The “TGI (%)” value ([3]; SK-OV-3 xenograft, 35 mg/kg oral once daily, continuous, 20/20 doses/study days) was 120%, the “TGI (%)” value [4] was 70% and the “inhibition of xenograft tumour growth (in words)” value ([5]; RMG1 ARID1A wildtype model) was “No inhibition of xenograft tumour growth”. The “TGI (%)” value ([5]; RMG1 xenograft, 35 mg/kg oral once daily, 5/7 days, 15/19 doses/study days) was −3.0%, the “efficacy in xenograft model (in words)” value ([6]; ES-2 ARID1A wild type model, criterion TGI>50%) was “did not meet the criteria for efficacy” and the “TGI (%)” value ([6]; ES-2 xenograft, 35 mg/kg oral once daily, 5/7 days, 12/17 doses/study days) was 12%. For the same molecule, the “efficacy in xenograft model (in words)” value ([7]; OVCAR-5 ARID1A wild type model, criterion TGI>50%) was “did not meet the criteria for efficacy” and the “TGI (%)” value ([7]; OVCAR-5 xenograft, 35 mg/kg oral once daily, 5/7 days, 21/27 doses/study days) was 27%.
